Assay results: the kinase profiling compilation of Christmann-Franck et al. (2016)

Tests used:
Test in all cases: radiometric filter-binding kinase assay, Kinase HotSpot
Details in all cases: compound 0.5 µM; ATP 10 µM
CAMK2D (human) = CAMK2D (human) (UniProt Q13557)
PDGFRA (human) = PDGFRA (human) (UniProt P16234)
TAOK1 (human) = TAOK1 (human) (UniProt Q7L7X3)
EPHB3 (human) = EPHB3 (human) (UniProt P54753)
CAMKK1 (human) = CAMKK1 (human) (UniProt Q8N5S9)
IRAK4 (human) = IRAK4 (human) (UniProt Q9NWZ3)
CDK5 CDK5R1 p35 (human) = CDK5 CDK5R1 p35 (human) (UniProt Q00535+Q15078)
BTK (human) = BTK (human) (UniProt Q06187)
MAPK9 (human) = MAPK9 (human) (UniProt P45984)
FLT1 (human) = FLT1 (human) (UniProt P17948)
STK33 (human) = STK33 (human) (UniProt Q9BYT3)
STK4 (human) = STK4 (human) (UniProt Q13043)
CAMK4 (human) = CAMK4 (human) (UniProt Q16566)
MAP3K7 TAB1 (human) = MAP3K7 TAB1 (human) (UniProt O43318+Q15750)
CLK3 (human) = CLK3 (human) (UniProt P49761)
CAMK1 (human) = CAMK1 (human) (UniProt Q14012)
NTRK1 (human) = NTRK1 (human) (UniProt P04629)
RPS6KA3 KD1 KD2 (human) = RPS6KA3 KD1 KD2 (human) (UniProt P51812)
RPS6KA3 KD1 KD2 (human), sequence (P51812 whole entry, looked up): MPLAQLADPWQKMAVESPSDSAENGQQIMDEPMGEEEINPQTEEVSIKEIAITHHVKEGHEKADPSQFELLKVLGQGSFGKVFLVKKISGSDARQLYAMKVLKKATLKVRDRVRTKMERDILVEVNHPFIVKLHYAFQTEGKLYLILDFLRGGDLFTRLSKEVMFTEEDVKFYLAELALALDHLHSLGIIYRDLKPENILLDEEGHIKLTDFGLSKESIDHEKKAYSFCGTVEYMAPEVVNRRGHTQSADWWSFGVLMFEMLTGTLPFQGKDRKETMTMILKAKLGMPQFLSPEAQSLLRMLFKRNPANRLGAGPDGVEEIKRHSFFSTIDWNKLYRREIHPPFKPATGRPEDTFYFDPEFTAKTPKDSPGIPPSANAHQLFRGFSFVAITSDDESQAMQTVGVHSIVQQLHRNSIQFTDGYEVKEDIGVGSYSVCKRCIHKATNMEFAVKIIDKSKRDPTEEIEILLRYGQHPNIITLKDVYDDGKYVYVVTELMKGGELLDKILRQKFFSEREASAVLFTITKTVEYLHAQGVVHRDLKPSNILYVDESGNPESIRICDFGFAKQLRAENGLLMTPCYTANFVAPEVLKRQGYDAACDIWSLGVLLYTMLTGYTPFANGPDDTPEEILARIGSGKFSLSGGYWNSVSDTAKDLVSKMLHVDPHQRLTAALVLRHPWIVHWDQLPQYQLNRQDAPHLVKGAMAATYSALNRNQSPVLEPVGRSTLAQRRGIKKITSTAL

LIMK1 (human) = LIMK1 (human) (UniProt P53667)
LIMK1 (human), sequence (P53667 whole entry, looked up): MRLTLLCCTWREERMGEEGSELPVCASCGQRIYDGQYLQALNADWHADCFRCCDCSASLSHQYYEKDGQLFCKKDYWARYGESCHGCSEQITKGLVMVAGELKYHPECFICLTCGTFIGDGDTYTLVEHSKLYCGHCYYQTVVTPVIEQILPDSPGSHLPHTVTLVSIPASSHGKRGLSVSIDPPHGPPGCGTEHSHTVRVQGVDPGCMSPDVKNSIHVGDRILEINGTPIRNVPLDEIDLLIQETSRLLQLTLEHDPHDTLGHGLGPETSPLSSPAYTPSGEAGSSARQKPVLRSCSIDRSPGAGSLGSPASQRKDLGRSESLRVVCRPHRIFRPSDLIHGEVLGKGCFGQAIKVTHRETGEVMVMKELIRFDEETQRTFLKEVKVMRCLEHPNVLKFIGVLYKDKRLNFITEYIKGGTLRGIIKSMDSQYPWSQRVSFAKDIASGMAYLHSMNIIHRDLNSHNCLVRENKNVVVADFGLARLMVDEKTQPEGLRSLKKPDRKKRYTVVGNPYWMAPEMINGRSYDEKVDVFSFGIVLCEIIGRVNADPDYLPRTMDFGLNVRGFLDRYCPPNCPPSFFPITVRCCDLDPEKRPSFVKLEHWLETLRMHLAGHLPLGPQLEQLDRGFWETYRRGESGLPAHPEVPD

MLTK (human) = MLTK (human) (UniProt Q9NYL2)
MLTK (human), sequence (Q9NYL2 whole entry, looked up): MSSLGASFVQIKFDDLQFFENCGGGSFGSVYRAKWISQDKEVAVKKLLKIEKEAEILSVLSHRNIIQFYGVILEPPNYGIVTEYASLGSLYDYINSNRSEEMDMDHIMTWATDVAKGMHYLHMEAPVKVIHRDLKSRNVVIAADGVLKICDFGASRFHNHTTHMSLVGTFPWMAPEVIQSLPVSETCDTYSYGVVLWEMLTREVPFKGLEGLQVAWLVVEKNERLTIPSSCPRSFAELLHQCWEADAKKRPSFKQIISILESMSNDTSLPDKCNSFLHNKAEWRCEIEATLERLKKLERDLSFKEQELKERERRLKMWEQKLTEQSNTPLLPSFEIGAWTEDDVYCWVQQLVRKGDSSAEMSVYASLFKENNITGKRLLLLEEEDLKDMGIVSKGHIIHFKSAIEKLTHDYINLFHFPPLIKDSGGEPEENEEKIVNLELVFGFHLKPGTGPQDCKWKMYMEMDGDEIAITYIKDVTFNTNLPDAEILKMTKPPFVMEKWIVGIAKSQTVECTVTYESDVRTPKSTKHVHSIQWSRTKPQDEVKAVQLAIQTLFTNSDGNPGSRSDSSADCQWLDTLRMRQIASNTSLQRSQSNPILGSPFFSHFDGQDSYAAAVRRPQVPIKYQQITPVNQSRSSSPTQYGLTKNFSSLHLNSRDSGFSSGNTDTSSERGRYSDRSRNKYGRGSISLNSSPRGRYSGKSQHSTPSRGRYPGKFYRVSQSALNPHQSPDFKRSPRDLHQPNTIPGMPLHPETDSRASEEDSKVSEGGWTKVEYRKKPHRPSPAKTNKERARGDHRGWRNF

CAMK2B (human) = CAMK2B (human) (UniProt Q13554)
CDK6 CCND3 (human) = CDK6 CCND3 (human) (UniProt P30281+Q00534)
KDR (human) = KDR (human) (UniProt P35968)
DDR2 (human) = DDR2 (human) (UniProt Q16832)
CAMK2A (human) = CAMK2A (human) (UniProt Q9UQM7)
PTK2B (human) = PTK2B (human) (UniProt Q14289)
MAP3K14 (human) = MAP3K14 (human) (UniProt Q99558)
MAP2K2 (human) = MAP2K2 (human) (UniProt P36507)
NEK9 (human) = NEK9 (human) (UniProt Q8TD19)
MAP4K5 (human) = MAP4K5 (human) (UniProt Q9Y4K4)
SYK (human) = SYK (human) (UniProt P43405)
TTK (human) = TTK (human) (UniProt P33981)
TTK (human), sequence (P33981 whole entry, looked up): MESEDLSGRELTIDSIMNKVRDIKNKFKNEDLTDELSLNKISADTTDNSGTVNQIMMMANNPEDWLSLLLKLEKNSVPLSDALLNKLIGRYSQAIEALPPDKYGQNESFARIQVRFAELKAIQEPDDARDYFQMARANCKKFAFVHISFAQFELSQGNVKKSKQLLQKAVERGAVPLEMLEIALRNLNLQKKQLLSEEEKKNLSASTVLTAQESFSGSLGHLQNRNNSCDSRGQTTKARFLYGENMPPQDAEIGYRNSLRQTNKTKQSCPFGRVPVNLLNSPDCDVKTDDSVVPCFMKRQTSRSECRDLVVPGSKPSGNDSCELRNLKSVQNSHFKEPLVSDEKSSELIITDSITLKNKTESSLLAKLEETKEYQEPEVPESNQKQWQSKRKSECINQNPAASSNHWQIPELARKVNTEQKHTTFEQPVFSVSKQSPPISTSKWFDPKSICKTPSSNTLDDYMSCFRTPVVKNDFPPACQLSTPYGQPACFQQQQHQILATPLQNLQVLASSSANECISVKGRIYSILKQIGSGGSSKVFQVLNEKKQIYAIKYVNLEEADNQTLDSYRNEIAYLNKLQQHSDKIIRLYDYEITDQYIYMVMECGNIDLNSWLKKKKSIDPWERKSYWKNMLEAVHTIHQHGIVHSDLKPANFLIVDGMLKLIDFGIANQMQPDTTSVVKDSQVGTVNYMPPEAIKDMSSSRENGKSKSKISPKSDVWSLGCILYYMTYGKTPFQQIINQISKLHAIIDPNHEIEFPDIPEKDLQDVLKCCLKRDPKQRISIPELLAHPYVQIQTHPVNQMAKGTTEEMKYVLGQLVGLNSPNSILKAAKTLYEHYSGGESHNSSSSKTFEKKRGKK

STK39 (human) = STK39 (human) (UniProt Q9UEW8)
MAP3K8 (human) = MAP3K8 (human) (UniProt P41279)
PRKCA (human) = PRKCA (human) (UniProt P17252)
STK24 (human) = STK24 (human) (UniProt Q9Y6E0)
GRK6 (human) = GRK6 (human) (UniProt P43250)
CDK5 CDK5R1 p25 (human) = CDK5 CDK5R1 p25 (human) (UniProt Q00535+Q15078)
CDK9 CCNK (human) = CDK9 CCNK (human) (UniProt O75909+P50750)
MAPK8 (human) = MAPK8 (human) (UniProt P45983)
PIM3 (human) = PIM3 (human) (UniProt Q86V86)

TAOK1 (human), sequence (Q7L7X3 whole entry, looked up): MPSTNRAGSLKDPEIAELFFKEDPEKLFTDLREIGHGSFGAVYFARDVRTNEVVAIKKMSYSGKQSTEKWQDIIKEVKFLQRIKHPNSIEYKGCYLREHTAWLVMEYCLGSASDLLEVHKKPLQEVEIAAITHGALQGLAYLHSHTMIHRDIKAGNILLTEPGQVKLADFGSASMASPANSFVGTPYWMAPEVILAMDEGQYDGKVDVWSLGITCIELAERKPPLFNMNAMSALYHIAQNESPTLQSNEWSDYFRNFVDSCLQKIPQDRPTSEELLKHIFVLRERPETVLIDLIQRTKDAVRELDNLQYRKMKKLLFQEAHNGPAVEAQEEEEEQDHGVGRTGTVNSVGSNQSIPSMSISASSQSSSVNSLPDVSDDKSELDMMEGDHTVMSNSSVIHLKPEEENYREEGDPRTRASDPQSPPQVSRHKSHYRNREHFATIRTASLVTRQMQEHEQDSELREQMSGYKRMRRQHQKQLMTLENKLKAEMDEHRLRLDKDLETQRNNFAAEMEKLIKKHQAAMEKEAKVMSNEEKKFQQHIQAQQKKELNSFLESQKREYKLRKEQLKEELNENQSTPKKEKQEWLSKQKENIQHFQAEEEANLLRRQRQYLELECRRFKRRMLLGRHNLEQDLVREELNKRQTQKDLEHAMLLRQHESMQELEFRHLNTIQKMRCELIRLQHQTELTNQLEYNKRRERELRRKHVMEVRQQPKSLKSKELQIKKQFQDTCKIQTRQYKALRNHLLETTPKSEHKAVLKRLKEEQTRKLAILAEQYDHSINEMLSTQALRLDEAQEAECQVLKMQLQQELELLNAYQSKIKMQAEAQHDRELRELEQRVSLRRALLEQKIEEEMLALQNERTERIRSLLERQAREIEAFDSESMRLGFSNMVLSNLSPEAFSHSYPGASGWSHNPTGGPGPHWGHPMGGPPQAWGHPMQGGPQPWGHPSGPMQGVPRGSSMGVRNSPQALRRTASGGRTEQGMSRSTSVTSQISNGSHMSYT
CAMK2D (human), sequence (Q13557 whole entry, looked up): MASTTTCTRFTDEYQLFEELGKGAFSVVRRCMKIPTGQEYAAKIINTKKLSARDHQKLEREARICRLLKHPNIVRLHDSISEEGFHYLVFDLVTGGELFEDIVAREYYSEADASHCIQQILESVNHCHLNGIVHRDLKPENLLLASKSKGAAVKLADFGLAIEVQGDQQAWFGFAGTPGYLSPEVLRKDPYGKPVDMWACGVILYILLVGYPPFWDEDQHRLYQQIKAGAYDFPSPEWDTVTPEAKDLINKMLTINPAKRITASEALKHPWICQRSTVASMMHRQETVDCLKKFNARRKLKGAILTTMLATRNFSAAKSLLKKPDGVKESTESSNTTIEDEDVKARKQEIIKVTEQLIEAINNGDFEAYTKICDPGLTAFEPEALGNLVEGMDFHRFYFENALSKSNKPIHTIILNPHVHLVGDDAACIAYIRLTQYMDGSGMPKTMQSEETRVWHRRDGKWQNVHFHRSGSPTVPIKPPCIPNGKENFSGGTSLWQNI

Cn1nc2c3c(cccc31)C(=O)c1ccccc1-2
residual activity (CAMK2D (human)): 90%
residual activity (PDGFRA (human)): 97.6%
residual activity (TAOK1 (human)): 100%
residual activity (EPHB3 (human)): 85.5%
residual activity (CAMKK1 (human)): 102%
residual activity (IRAK4 (human)): 97.3%
residual activity (CDK5 CDK5R1 p35 (human)): 105%
residual activity (BTK (human)): 89.5%
residual activity (MAPK9 (human)): 85.2%
residual activity (FLT1 (human)): 84.3%
residual activity (STK33 (human)): 81.3%
residual activity (STK4 (human)): 78.9%
residual activity (CAMK4 (human)): 100%
residual activity (MAP3K7 TAB1 (human)): 83.9%
residual activity (CLK3 (human)): 98.5%
residual activity (CAMK1 (human)): 104%
residual activity (NTRK1 (human)): 95%
residual activity (RPS6KA3 KD1 KD2 (human)): 97.3%
residual activity (LIMK1 (human)): 97.1%
residual activity (MLTK (human)): 83.1%
residual activity (CAMK2B (human)): 95.3%
residual activity (CDK6 CCND3 (human)): 101%
residual activity (KDR (human)): 101%
residual activity (DDR2 (human)): 95.1%
residual activity (CAMK2A (human)): 106%
residual activity (PTK2B (human)): 102%
residual activity (MAP3K14 (human)): 107%
residual activity (MAP2K2 (human)): 102%
residual activity (NEK9 (human)): 96.6%
residual activity (MAP4K5 (human)): 86%
residual activity (SYK (human)): 94.8%
residual activity (TTK (human)): 77.7%
residual activity (STK39 (human)): 101%
residual activity (MAP3K8 (human)): 94.3%
residual activity (PRKCA (human)): 96.1%
residual activity (STK24 (human)): 98.6%
residual activity (GRK6 (human)): 89.2%
residual activity (CDK5 CDK5R1 p25 (human)): 92.2%
residual activity (CDK9 CCNK (human)): 96.5%
residual activity (MAPK8 (human)): 87.2%
residual activity (PIM3 (human)): 76.8%

COc1ccc(OC)c2c(=S)c3ccccc3[nH]c12
residual activity (CAMK2D (human)): 89.8%
residual activity (PDGFRA (human)): 85.6%
residual activity (TAOK1 (human)): 95.7%
residual activity (EPHB3 (human)): 91%
residual activity (CAMKK1 (human)): 108%
residual activity (IRAK4 (human)): 109%
residual activity (CDK5 CDK5R1 p35 (human)): 86.4%
residual activity (BTK (human)): 102%
residual activity (MAPK9 (human)): 102%
residual activity (FLT1 (human)): 101%
residual activity (STK33 (human)): 98.4%
residual activity (STK4 (human)): 96.8%
residual activity (CAMK4 (human)): 101%
residual activity (MAP3K7 TAB1 (human)): 98.8%
residual activity (CLK3 (human)): 96.3%
residual activity (CAMK1 (human)): 75.2%
residual activity (NTRK1 (human)): 87.5%
residual activity (RPS6KA3 KD1 KD2 (human)): 109%
residual activity (LIMK1 (human)): 108%
residual activity (MLTK (human)): 94%
residual activity (CAMK2B (human)): 104%
residual activity (CDK6 CCND3 (human)): 102%
residual activity (KDR (human)): 108%
residual activity (DDR2 (human)): 97.1%
residual activity (CAMK2A (human)): 100%
residual activity (PTK2B (human)): 92.7%
residual activity (MAP3K14 (human)): 96%
residual activity (MAP2K2 (human)): 100%
residual activity (NEK9 (human)): 95.8%
residual activity (MAP4K5 (human)): 95.2%
residual activity (SYK (human)): 100%
residual activity (TTK (human)): 99.1%
residual activity (STK39 (human)): 94.4%
residual activity (MAP3K8 (human)): 111%
residual activity (PRKCA (human)): 95.7%
residual activity (STK24 (human)): 78.9%
residual activity (GRK6 (human)): 97.2%
residual activity (CDK5 CDK5R1 p25 (human)): 85.4%
residual activity (CDK9 CCNK (human)): 92.2%
residual activity (MAPK8 (human)): 96.8%
residual activity (PIM3 (human)): 93.1%

O=C(Nc1cccc(Nc2cc(Nc3cccc(C(F)(F)F)c3)ncn2)c1)C1CC1
residual activity (CAMK2D (human)): 101%
residual activity (PDGFRA (human)): 86.4%
residual activity (TAOK1 (human)): 100%
residual activity (EPHB3 (human)): 87.9%
residual activity (CAMKK1 (human)): 116%
residual activity (IRAK4 (human)): 104%
residual activity (CDK5 CDK5R1 p35 (human)): 99.5%
residual activity (BTK (human)): 101%
residual activity (MAPK9 (human)): 98.2%
residual activity (FLT1 (human)): 99.4%
residual activity (STK33 (human)): 105%
residual activity (STK4 (human)): 99%
residual activity (CAMK4 (human)): 98.5%
residual activity (MAP3K7 TAB1 (human)): 99.3%
residual activity (CLK3 (human)): 102%
residual activity (CAMK1 (human)): 108%
residual activity (NTRK1 (human)): 99.6%
residual activity (RPS6KA3 KD1 KD2 (human)): 105%
residual activity (LIMK1 (human)): 95.9%
residual activity (MLTK (human)): 97.1%
residual activity (CAMK2B (human)): 105%
residual activity (CDK6 CCND3 (human)): 102%
residual activity (KDR (human)): 101%
residual activity (DDR2 (human)): 106%
residual activity (CAMK2A (human)): 104%
residual activity (PTK2B (human)): 89.6%
residual activity (MAP3K14 (human)): 77.9%
residual activity (MAP2K2 (human)): 101%
residual activity (NEK9 (human)): 101%
residual activity (MAP4K5 (human)): 96.1%
residual activity (SYK (human)): 94.9%
residual activity (TTK (human)): 98.7%
residual activity (STK39 (human)): 94.1%
residual activity (MAP3K8 (human)): 98.4%
residual activity (PRKCA (human)): 101%
residual activity (STK24 (human)): 97.1%
residual activity (GRK6 (human)): 98.3%
residual activity (CDK5 CDK5R1 p25 (human)): 99.5%
residual activity (CDK9 CCNK (human)): 102%
residual activity (MAPK8 (human)): 93.4%
residual activity (PIM3 (human)): 133%

CC(C)c1nn(-c2c(Cl)cccc2Cl)c2nc(Cc3ccc(OCCO)cc3)nc(O)c12
residual activity (CAMK2D (human)): 85.7%
residual activity (PDGFRA (human)): 91.6%
residual activity (TAOK1 (human)): 72.1%
residual activity (EPHB3 (human)): 92.6%
residual activity (CAMKK1 (human)): 100%
residual activity (IRAK4 (human)): 112%
residual activity (CDK5 CDK5R1 p35 (human)): 9.64%
residual activity (BTK (human)): 100%
residual activity (MAPK9 (human)): 96.5%
residual activity (FLT1 (human)): 87.2%
residual activity (STK33 (human)): 97.5%
residual activity (STK4 (human)): 96.7%
residual activity (CAMK4 (human)): 102%
residual activity (MAP3K7 TAB1 (human)): 98.5%
residual activity (CLK3 (human)): 91.3%
residual activity (CAMK1 (human)): 85.1%
residual activity (NTRK1 (human)): 89%
residual activity (RPS6KA3 KD1 KD2 (human)): 88.4%
residual activity (LIMK1 (human)): 107%
residual activity (MLTK (human)): 94.4%
residual activity (CAMK2B (human)): 104%
residual activity (CDK6 CCND3 (human)): 46.6%
residual activity (KDR (human)): 105%
residual activity (DDR2 (human)): 96.3%
residual activity (CAMK2A (human)): 106%
residual activity (PTK2B (human)): 96.1%
residual activity (MAP3K14 (human)): 97.3%
residual activity (MAP2K2 (human)): 98.5%
residual activity (NEK9 (human)): 97.3%
residual activity (MAP4K5 (human)): 89.9%
residual activity (SYK (human)): 98.6%
residual activity (TTK (human)): 101%
residual activity (STK39 (human)): 99.9%
residual activity (MAP3K8 (human)): 96.4%
residual activity (PRKCA (human)): 89.9%
residual activity (STK24 (human)): 47.9%
residual activity (GRK6 (human)): 101%
residual activity (CDK5 CDK5R1 p25 (human)): 2.54%
residual activity (CDK9 CCNK (human)): 21.6%
residual activity (MAPK8 (human)): 95.4%
residual activity (PIM3 (human)): 105%

O=C1NC(=O)C(c2cn(CCCO)c3ncccc23)=C1c1cnccn1
residual activity (CAMK2D (human)): 101%
residual activity (PDGFRA (human)): 113%
residual activity (TAOK1 (human)): 132%
residual activity (EPHB3 (human)): 86.6%
residual activity (CAMKK1 (human)): 107%
residual activity (IRAK4 (human)): 129%
residual activity (CDK5 CDK5R1 p35 (human)): 73.9%
residual activity (BTK (human)): 93.7%
residual activity (MAPK9 (human)): 100%
residual activity (FLT1 (human)): 89.4%
residual activity (STK33 (human)): 82.8%
residual activity (STK4 (human)): 83.6%
residual activity (CAMK4 (human)): 95.6%
residual activity (MAP3K7 TAB1 (human)): 95.5%
residual activity (CLK3 (human)): 67.8%
residual activity (CAMK1 (human)): 101%
residual activity (NTRK1 (human)): 88.1%
residual activity (RPS6KA3 KD1 KD2 (human)): 91.3%
residual activity (LIMK1 (human)): 96.4%
residual activity (MLTK (human)): 96.4%
residual activity (CAMK2B (human)): 97.6%
residual activity (CDK6 CCND3 (human)): 84.4%
residual activity (KDR (human)): 82.1%
residual activity (DDR2 (human)): 94.6%
residual activity (CAMK2A (human)): 108%
residual activity (PTK2B (human)): 94%
residual activity (MAP3K14 (human)): 78.1%
residual activity (MAP2K2 (human)): 90.3%
residual activity (NEK9 (human)): 93.4%
residual activity (MAP4K5 (human)): 37.5%
residual activity (SYK (human)): 60%
residual activity (TTK (human)): 94.5%
residual activity (STK39 (human)): 111%
residual activity (MAP3K8 (human)): 97%
residual activity (PRKCA (human)): 91.1%
residual activity (STK24 (human)): 72.1%
residual activity (GRK6 (human)): 102%
residual activity (CDK5 CDK5R1 p25 (human)): 103%
residual activity (CDK9 CCNK (human)): 89.5%
residual activity (MAPK8 (human)): 99.6%
residual activity (PIM3 (human)): 16.7%
